Experimental data published in ChEMBL document CHEMBL4825682, “Discovery of novel purinylthiazolylethanone derivatives as anti-Candida albicans agents through possible multifaceted mechanisms” (Eur J Med Chem, 2021).
Converted amounts (≈) assume the structure as drawn. The source made the active and inactive calls. The rule behind the calls is not given here.

Assays:
[1] = test system: Candida albicans; experiment: Antifungal activity against Candida albicans ATCC 90023 assessed as fungal growth inhibition by CLSI protocol based microbroth dilution method; assay type: functional
[2] = Hemolytic activity in human RBC; assay type: cell-based, Erythrocyte; settings: human red blood cells (erythrocytes)
[3] = test system: Aspergillus fumigatus; experiment: Antifungal activity against Aspergillus fumigatus assessed as fungal growth inhibition by CLSI protocol based microbroth dilution method; assay type: functional
[4] = test system: Candida albicans; experiment: Antifungal activity against Candida albicans measured after 8 passages; assay type: functional, organism-based
[5] = test system: Candida parapsilosis; experiment: Antifungal activity against Candida parapsilosis ATCC 22019 assessed as fungal growth inhibition by CLSI protocol based microbroth dilution method; assay type: functional; settings: Lodderomyces parapsilosis
[6] = test system: Candida albicans; experiment: Antifungal activity against Candida albicans assessed as fungal growth inhibition by CLSI protocol based microbroth dilution method; assay type: functional
[7] = test system: Candida tropicalis; experiment: Antifungal activity against Candida tropicalis assessed as fungal growth inhibition by CLSI protocol based microbroth dilution method; assay type: functional

Row | SMILES | MIC [1] | HC50 [2] | MIC [3] | Activity [4] | MIC [5] | MIC [6] | MIC [7]
1 | OC(Cn1cncn1)(Cn1cncn1)c1ccc(F)cc1F [FLUCONAZOLE] | 2 µg/mL (≈ 6.53 µM) | > 256 µg/mL | 256 µg/mL (≈ 836 µM) | Active | 4 µg/mL (≈ 13.1 µM) | 4 µg/mL (≈ 13.1 µM) | 8 µg/mL (≈ 26.1 µM)
2 | C#CCN1CCN(c2ncnc3c2ncn3CC(=O)c2nccs2)CC1 | 16 µg/mL (≈ 43.5 µM) | > 256 µg/mL | 32 µg/mL (≈ 87.1 µM) |  | 256 µg/mL (≈ 697 µM) | 256 µg/mL (≈ 697 µM) | 256 µg/mL (≈ 697 µM)
3 | O=C(Cn1cnc2c(N3CCN(Cc4ccccc4F)CC3)ncnc21)c1nccs1 | 2 µg/mL (≈ 4.57 µM) | > 256 µg/mL | 32 µg/mL (≈ 73.1 µM) |  | 256 µg/mL (≈ 585 µM) | 256 µg/mL (≈ 585 µM) | 256 µg/mL (≈ 585 µM)
4 | O=C(Cn1cnc2c(N3CCN(CC(=O)N(C4CCCCC4)C4CCCCC4)CC3)ncnc21)c1nccs1 | 256 µg/mL (≈ 465 µM) | > 256 µg/mL | 32 µg/mL (≈ 58.1 µM) |  | 16 µg/mL (≈ 29.1 µM) | 8 µg/mL (≈ 14.5 µM) | 16 µg/mL (≈ 29.1 µM)
5 | O=C(Cn1cnc2c(N3CCN(Cc4ccc(F)cc4)CC3)ncnc21)c1nccs1 | 256 µg/mL (≈ 585 µM) | > 256 µg/mL | 32 µg/mL (≈ 73.1 µM) |  | 256 µg/mL (≈ 585 µM) | 32 µg/mL (≈ 73.1 µM) | 64 µg/mL (≈ 146 µM)
6 | O=C(Cn1cnc2c(N3CCNCC3)ncnc21)c1nccs1 | 32 µg/mL (≈ 97.1 µM) | > 256 µg/mL | 64 µg/mL (≈ 194 µM) |  | 256 µg/mL (≈ 777 µM) | 64 µg/mL (≈ 194 µM) | 32 µg/mL (≈ 97.1 µM)
7 | CCCCCCCCN1CCN(c2ncnc3c2ncn3CC(=O)c2nccs2)CC1 | 256 µg/mL (≈ 580 µM) | > 256 µg/mL | 64 µg/mL (≈ 145 µM) |  | 16 µg/mL (≈ 36.2 µM) | 2 µg/mL (≈ 4.53 µM) | 16 µg/mL (≈ 36.2 µM)
8 | Cc1ccc(CN2CCN(c3ncnc4c3ncn4CC(=O)c3nccs3)CC2)cc1 | 128 µg/mL (≈ 295 µM) | > 256 µg/mL | 64 µg/mL (≈ 148 µM) |  | 64 µg/mL (≈ 148 µM) | 16 µg/mL (≈ 36.9 µM) | 64 µg/mL (≈ 148 µM)
9 | CCCCCCCCCCCCCCCCCCN1CCN(c2ncnc3c2ncn3CC(=O)c2nccs2)CC1 | 256 µg/mL (≈ 440 µM) | > 256 µg/mL | 32 µg/mL (≈ 55 µM) |  | 128 µg/mL (≈ 220 µM) | 2 µg/mL (≈ 3.44 µM) | 64 µg/mL (≈ 110 µM)
10 | O=C(Cn1cnc2c(N3CCN(Cc4ccc([N+](=O)[O-])cc4)CC3)ncnc21)c1nccs1 | 128 µg/mL (≈ 276 µM) | > 256 µg/mL | 32 µg/mL (≈ 68.9 µM) |  | 64 µg/mL (≈ 138 µM) | 8 µg/mL (≈ 17.2 µM) | 64 µg/mL (≈ 138 µM)
11 | N#CCN(CC#N)C(=O)CN1CCN(c2ncnc3c2ncn3CC(=O)c2nccs2)CC1 | 32 µg/mL (≈ 68.9 µM) | > 256 µg/mL | 64 µg/mL (≈ 138 µM) |  | 128 µg/mL (≈ 276 µM) | 16 µg/mL (≈ 34.4 µM) | 64 µg/mL (≈ 138 µM)
12 | O=C(Cn1cnc2c(N3CCCCCC3)ncnc21)c1nccs1 | 8 µg/mL (≈ 23.4 µM) | > 256 µg/mL | 64 µg/mL (≈ 187 µM) |  | 256 µg/mL (≈ 748 µM) | 256 µg/mL (≈ 748 µM) | 256 µg/mL (≈ 748 µM)
13 | CCOC(=O)CN1CCN(c2ncnc3c2ncn3CC(O)c2nccs2)CC1 (configuration not stated) | 64 µg/mL (≈ 153 µM) | > 256 µg/mL | 32 µg/mL (≈ 76.6 µM) |  | 128 µg/mL (≈ 307 µM) | 128 µg/mL (≈ 307 µM) | 64 µg/mL (≈ 153 µM)
14 | CCO/N=C(/Cn1cnc2c(N3CCN(CC(=O)OCC)CC3)ncnc21)c1nccs1 | 64 µg/mL (≈ 140 µM) | > 256 µg/mL | 128 µg/mL (≈ 279 µM) |  | 128 µg/mL (≈ 279 µM) | 64 µg/mL (≈ 140 µM) | 128 µg/mL (≈ 279 µM)
15 | CCCCCCN1CCN(c2ncnc3c2ncn3CC(=O)c2nccs2)CC1 | 16 µg/mL (≈ 38.7 µM) | > 256 µg/mL | 128 µg/mL (≈ 310 µM) |  | 4 µg/mL (≈ 9.67 µM) | 4 µg/mL (≈ 9.67 µM) | 32 µg/mL (≈ 77.4 µM)
16 | CCOC(=O)CN1CCN(c2ncnc3c2ncn3C/C(=N/OC)c2nccs2)CC1 | 64 µg/mL (≈ 144 µM) | > 256 µg/mL | 32 µg/mL (≈ 72 µM) |  | 128 µg/mL (≈ 288 µM) | 8 µg/mL (≈ 18 µM) | 64 µg/mL (≈ 144 µM)
